Consider eight compounds from ChEMBL document CHEMBL5465560, “Selectivity Literature for EUbOPEN Chemogenomic Library” (2024).

In test [1] the target is Ribosomal protein S6 kinase alpha-1 (Homo sapiens, UniProt Q15418). Description: Selectivity interaction (Kinase panel (Z-LYTE Assay)) EUB0001632a RPS6KA1. The following applies: at 10 µM.
The target in test [2] is T1, Mitogen-activated protein kinase kinase kinase 5 (Homo sapiens) (UniProt Q99683).
T1 sequence (whole entry): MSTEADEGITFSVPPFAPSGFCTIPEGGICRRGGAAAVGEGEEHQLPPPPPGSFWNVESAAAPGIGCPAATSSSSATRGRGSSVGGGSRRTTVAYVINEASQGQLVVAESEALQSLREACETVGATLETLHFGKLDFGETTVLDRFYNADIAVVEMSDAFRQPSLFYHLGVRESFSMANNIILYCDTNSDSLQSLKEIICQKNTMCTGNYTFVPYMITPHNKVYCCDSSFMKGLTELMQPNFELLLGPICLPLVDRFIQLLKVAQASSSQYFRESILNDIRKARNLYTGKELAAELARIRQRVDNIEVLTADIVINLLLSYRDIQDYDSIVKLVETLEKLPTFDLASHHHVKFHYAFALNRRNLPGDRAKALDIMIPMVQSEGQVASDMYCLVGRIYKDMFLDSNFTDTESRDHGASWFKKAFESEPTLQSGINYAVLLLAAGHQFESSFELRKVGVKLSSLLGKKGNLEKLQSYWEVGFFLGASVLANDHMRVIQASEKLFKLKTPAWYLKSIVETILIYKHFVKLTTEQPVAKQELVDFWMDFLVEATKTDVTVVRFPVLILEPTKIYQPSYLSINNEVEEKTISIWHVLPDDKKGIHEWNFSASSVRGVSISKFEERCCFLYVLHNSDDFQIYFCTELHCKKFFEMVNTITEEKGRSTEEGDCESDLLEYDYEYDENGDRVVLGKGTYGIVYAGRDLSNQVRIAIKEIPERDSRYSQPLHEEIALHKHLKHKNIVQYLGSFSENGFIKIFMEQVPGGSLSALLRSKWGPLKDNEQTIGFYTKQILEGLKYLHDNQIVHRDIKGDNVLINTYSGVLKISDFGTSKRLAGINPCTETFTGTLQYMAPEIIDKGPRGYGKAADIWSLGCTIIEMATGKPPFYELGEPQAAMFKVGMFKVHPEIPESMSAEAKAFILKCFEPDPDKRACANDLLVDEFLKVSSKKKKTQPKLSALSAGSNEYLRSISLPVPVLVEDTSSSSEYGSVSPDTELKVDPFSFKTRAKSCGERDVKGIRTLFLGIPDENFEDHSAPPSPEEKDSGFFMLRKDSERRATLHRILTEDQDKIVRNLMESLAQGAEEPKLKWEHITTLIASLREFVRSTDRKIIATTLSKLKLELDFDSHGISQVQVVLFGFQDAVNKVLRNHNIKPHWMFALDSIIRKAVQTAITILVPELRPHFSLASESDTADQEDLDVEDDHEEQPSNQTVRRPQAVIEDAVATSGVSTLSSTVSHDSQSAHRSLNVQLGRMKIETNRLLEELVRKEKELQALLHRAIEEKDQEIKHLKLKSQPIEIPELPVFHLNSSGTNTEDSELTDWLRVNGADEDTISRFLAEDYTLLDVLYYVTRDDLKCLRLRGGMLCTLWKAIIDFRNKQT
Particulars: at 10 µM.

The target of test [3] is Mitogen-activated protein kinase 1 (Homo sapiens, UniProt P28482). The experiment in a line: Selectivity interaction (Kinase panel (DSF assay)) EUB0001558a MAPK1. A general note: In DSF a fluorescence change marks the thermal transition of the protein.
For test [4], the target named is T2, Bone morphogenetic protein receptor type-2 (Homo sapiens) (UniProt Q13873).
T2 sequence (whole entry): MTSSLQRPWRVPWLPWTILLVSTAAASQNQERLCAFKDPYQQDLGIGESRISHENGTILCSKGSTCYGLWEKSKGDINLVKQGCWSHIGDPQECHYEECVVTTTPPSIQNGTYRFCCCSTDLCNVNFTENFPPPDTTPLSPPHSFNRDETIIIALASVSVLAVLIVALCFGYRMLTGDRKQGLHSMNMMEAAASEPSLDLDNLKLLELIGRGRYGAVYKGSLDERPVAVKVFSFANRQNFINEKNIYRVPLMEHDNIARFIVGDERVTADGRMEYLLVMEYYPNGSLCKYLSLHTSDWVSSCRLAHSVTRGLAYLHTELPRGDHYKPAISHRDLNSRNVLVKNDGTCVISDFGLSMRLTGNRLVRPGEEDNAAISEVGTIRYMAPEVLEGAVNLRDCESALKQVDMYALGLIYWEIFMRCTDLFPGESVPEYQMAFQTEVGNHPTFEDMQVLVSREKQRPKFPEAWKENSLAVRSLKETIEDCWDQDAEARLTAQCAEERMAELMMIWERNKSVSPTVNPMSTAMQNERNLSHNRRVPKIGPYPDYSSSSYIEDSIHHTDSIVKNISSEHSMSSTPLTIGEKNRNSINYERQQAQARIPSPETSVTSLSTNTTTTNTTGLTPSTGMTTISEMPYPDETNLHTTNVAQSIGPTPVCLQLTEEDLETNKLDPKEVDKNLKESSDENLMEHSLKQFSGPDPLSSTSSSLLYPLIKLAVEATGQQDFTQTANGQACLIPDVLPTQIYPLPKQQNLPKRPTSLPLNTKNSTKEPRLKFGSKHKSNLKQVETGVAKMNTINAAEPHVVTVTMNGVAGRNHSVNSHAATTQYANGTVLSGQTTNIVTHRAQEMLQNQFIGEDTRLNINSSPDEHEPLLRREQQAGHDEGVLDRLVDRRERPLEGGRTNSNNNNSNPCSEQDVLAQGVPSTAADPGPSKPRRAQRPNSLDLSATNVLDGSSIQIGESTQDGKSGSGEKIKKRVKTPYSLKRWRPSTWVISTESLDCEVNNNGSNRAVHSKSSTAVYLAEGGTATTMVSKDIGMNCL
The experiment in a line: Selectivity interaction (KinomeScan (DiscoverX)) EUB0000655a BMPR2. The following applies: at 10 µM.

Test [5] deals with Cyclin-dependent kinase 9 (Homo sapiens, UniProt P50750). The experiment in a line: Selectivity interaction (ActivX KiNativ screen (ex vivo kinase selectivity in human PBMCs)) EUB0001619a CDK9. In kind it is cell-based. Particulars: PBMC, at 1 µM.
For test [6], the target named is Protein-tyrosine kinase 6 (Homo sapiens, UniProt Q13882). Particulars: at 10 µM.
For test [7], the target named is Insulin receptor (Homo sapiens, UniProt P06213). The experiment in a line: Selectivity interaction (KinomeScan (DiscoverX)) EUB0001049a INSR. Particulars: at 1 µM.
Test [8] deals with Tyrosine-protein kinase Blk (Homo sapiens) (UniProt P51451). The experiment in a line: Selectivity interaction (ProQinase) EUB0000171b BLK.
Chain of Tyrosine-protein kinase Blk (Homo sapiens) (P51451 2-505 limits assumed): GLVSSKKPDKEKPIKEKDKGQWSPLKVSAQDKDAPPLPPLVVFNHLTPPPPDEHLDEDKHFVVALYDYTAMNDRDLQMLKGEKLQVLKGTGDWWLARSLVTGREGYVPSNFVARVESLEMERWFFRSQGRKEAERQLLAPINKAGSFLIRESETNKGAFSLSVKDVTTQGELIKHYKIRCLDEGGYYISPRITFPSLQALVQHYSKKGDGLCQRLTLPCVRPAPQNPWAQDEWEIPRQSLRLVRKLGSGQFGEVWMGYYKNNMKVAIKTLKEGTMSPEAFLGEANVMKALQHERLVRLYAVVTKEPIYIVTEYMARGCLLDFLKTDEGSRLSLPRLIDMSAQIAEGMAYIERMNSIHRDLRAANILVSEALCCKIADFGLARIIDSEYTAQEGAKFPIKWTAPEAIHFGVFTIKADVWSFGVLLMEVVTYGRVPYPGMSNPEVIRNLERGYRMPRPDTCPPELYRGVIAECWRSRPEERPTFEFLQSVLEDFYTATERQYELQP

Chain of Ribosomal protein S6 kinase alpha-1 (Q15418 whole entry): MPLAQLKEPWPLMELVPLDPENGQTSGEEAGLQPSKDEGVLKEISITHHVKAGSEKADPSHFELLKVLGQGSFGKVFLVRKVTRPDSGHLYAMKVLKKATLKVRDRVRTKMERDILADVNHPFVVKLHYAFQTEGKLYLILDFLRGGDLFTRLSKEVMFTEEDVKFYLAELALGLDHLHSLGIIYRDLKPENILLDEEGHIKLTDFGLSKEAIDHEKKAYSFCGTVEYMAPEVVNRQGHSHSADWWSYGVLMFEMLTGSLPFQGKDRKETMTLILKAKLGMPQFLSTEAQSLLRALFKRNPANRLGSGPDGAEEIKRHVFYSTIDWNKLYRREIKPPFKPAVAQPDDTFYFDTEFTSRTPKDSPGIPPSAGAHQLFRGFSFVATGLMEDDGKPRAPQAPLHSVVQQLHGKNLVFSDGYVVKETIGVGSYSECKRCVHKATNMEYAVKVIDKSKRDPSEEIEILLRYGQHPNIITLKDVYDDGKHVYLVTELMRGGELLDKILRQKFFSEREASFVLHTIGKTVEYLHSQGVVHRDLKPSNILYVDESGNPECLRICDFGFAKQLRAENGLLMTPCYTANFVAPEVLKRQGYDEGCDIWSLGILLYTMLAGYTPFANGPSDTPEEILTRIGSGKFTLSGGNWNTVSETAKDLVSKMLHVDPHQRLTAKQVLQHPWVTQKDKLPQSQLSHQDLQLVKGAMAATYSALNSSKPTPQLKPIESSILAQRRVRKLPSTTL
Chain of Protein-tyrosine kinase 6 (Q13882 whole entry, looked up): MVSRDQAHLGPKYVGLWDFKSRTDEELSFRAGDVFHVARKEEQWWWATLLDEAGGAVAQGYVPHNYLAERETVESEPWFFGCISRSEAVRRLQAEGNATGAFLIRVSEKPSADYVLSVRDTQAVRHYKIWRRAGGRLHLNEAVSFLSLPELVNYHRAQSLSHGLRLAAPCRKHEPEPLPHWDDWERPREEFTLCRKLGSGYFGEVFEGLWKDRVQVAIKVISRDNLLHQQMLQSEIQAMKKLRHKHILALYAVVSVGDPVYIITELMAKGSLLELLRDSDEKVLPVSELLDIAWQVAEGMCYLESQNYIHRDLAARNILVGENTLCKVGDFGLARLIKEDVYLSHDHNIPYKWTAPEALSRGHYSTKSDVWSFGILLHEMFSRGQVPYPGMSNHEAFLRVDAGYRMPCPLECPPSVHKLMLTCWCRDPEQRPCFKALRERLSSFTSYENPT
Chain of Cyclin-dependent kinase 9 (P50750 whole entry): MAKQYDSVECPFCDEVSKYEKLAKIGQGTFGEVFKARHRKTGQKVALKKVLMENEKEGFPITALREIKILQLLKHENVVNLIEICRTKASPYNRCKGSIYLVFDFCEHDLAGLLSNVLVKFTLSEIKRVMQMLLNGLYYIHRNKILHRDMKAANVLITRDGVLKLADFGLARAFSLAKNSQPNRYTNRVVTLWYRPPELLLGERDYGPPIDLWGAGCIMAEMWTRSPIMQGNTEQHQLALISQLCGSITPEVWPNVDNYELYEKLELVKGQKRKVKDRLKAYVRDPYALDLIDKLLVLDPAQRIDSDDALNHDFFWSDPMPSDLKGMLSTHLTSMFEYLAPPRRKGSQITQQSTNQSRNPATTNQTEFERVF
Chain of Insulin receptor (P06213 28-758 limits assumed): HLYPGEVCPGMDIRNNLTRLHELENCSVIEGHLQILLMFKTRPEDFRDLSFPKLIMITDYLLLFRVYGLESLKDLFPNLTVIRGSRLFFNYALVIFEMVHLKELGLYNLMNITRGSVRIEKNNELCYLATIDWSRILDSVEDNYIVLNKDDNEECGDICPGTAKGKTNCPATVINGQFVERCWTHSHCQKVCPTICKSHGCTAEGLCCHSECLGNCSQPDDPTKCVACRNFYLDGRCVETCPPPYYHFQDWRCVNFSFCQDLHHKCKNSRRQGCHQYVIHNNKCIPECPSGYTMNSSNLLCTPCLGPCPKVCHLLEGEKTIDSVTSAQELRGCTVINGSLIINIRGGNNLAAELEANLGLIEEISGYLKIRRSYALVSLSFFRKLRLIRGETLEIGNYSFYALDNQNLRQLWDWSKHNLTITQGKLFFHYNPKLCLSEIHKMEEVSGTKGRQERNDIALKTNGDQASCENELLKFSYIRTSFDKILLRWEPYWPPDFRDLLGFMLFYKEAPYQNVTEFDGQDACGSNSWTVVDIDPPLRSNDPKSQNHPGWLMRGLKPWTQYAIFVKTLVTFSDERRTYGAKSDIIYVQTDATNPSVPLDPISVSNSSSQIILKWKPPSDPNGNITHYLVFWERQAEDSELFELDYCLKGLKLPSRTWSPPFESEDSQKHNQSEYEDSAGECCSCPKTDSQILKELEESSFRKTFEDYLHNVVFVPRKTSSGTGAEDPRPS
Chain of Insulin receptor (P06213 763-1382 limits assumed): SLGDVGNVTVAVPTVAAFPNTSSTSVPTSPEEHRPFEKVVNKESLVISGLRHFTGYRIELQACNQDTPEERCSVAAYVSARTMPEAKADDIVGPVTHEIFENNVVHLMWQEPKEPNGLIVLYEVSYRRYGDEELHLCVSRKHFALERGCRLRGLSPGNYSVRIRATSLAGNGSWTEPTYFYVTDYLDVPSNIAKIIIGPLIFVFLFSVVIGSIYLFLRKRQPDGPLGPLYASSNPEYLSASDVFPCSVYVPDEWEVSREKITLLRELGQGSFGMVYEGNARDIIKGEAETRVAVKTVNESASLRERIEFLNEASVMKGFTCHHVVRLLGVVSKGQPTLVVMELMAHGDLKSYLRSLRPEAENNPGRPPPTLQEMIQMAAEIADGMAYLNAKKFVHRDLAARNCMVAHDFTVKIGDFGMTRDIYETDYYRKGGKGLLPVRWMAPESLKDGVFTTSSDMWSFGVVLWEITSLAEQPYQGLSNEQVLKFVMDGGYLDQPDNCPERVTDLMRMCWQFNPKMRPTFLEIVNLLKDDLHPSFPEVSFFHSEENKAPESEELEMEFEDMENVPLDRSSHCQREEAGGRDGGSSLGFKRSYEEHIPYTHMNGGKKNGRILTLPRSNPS
Chain of Mitogen-activated protein kinase 1 (P28482 whole entry): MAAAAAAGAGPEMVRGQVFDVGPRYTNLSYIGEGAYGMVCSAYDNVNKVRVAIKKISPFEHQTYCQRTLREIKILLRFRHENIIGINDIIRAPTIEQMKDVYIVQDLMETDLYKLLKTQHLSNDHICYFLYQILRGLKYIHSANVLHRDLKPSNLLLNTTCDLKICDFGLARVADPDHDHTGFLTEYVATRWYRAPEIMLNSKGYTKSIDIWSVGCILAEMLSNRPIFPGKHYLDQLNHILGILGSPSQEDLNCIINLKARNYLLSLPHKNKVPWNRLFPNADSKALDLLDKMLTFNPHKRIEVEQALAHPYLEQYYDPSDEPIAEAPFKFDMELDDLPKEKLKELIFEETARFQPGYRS

For `Cn1cc(-n2cnc3c(NCc4nc5cc(Cl)c(Cl)cc5[nH]4)nc(N4CCOCC4)nc32)cn1`, in test [1], the % of control was -6.37%.

Take `Cc1cc([C@@H](C)Nc2ccccc2C(=O)O)c2nc(N3CCOCC3)cc(=O)n2c1` [AZD-6482]: the % of control in test [2] came to 100%.

In test [3], `CC(C)(O)[C@H](F)CN1Cc2cc(NC(=O)c3cnn4cccnc34)c(N3CCOCC3)cc2C1=O` came in with a dTM of 0.4 K.

Take `CN(C)CCOc1ccc(-c2nc(-c3ccncc3)c(-c3ccc4c(c3)CC/C4=N\O)[nH]2)cc1`: the % of control in test [4] worked out at 47%.

Compound `N#Cc1cccc(-c2c[nH]c3ncnc(N4CCOCC4)c23)c1` gave a % of inhibition in test [5] of 22%.

For the compound `CCN(CC)CCCCNc1ncc2cc(-c3cc(OC)cc(OC)c3)c(NC(=O)NC(C)(C)C)nc2n1`, in test [6], the % of control was 100%.

Regarding `COc1cc(Nc2nc(C)cc(-c3cnn4nc(OC)ccc34)n2)cc(C(F)(F)F)c1`, in test [7], the % of control is 71%.

As for `C=CC(=O)Nc1cccc(C(=O)Nc2ccc(Nc3cc(-c4[nH]c(SC)nc4C)ccn3)cc2)c1`, the % of control in test [8] (at 1 µM) amounted to 77%; in test [8] (at 5 µM), 81%.
